{"source": "patent US5106407A", "about": "“Iodones and methods for antimicrobial use” (priority 1989, dated 1992)", "system": "mixture of bacterial organisms listed in Table 1", "assay": "cutting oil preservation test;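 also: colony count scale from 1 for no colonies up to 10 for a solid mass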", "protocol": "Fifty gram aliquots of the latex were placed in sterile bottles and one hundred gram aliquots of the diluted cutting oil were placed in 250-mL Erlenmeyer flasks. An appropriate amount of a fresh 1 percent stock solution of (2-nitrophenyl)-iodonium 2,2-dimethyl-4,6-dioxo-1,3-dioxan-5-ylide in acetone-water was added to achieve the desired final concentrations (see Tables 5 and 6). A small portion of the respective latex or cutting oil preparation was then streaked onto Tryptic Soy Agar (TSA) petri plates using sterile cotton swabs to determine whether the preparations were sterile. If the particular preparation was sterile, it was then inoculated with an appropriate volume (0.1 mL for the latex and 0.2 mL for the cutting oil) of a mixture of equal aliquots of 24 hr cultures of each of the bacterial organisms listed in Table 1 (not the fungi and yeast). The latex samples were incubated at 30° C. and the cutting oils were agitated on a rotary shaker at room temperature. After 24 hr, all samples were again streaked on TSA. All plates were then incubated at 30° C. for 48 hr and then rated 1 to 10 according to the growth rating system described in Table 4.\nThe results from this first set of streaks after inoculation are listed in the columns labeled streak number 1 in Tables 5 and 6. Samples with a rating of 3 or less from streak number 1 were reinoculated as described for the first inoculation above. Samples with a rating of 4 or greater were not reinoculated. After another 24 hr all samples were again restreaked on TSA agar. The results from these second streaks were labeled streak number 2 in Tables 5 and 6. Samples were reinoculated and restreaked in this fashion for a maximum of 10 streaks. Any samples with two streaks in a row with a ten rating were not restreaked again."}
{"compound": "CC1(C)OC(=O)[C-]([I+]c2ccccc2[N+](=O)[O-])C(=O)O1", "note": "[Example 19, (2-Nitrophenyl)-iodonium 2,2-dimethyl-4,6-dioxo-1,3-dioxan-5-ylide]", "values": [{"measurement": "growth rating", "setting": "25 ppm, streak 1", "result": "1 (0)"}, {"measurement": "growth rating", "setting": "25 ppm, streak 2", "result": 9}, {"measurement": "growth rating", "setting": "25 ppm, streak 3", "result": 10}, {"measurement": "growth rating", "setting": "25 ppm, streak 4, restreaking not continued", "result": 10}, {"measurement": "growth rating", "setting": "50 ppm, streak 1", "result": "1 (0)"}, {"measurement": "growth rating", "setting": "50 ppm, streak 2", "result": "2 (1-4)"}, {"measurement": "growth rating", "setting": "50 ppm, streak 3", "result": 10}, {"measurement": "growth rating", "setting": "50 ppm, streak 4, restreaking not continued", "result": 10}, {"measurement": "growth rating", "setting": "100 ppm, streak 1", "result": "1 (0)"}, {"measurement": "growth rating", "setting": "100 ppm, streak 2", "result": "2 (1-4)"}, {"measurement": "growth rating", "setting": "100 ppm, streak 3", "result": "2 (1-4)"}, {"measurement": "growth rating", "setting": "100 ppm, streak 4", "result": "1 (0)"}, {"measurement": "growth rating", "setting": "100 ppm, streak 5", "result": 10}, {"measurement": "growth rating", "setting": "100 ppm, streak 6, restreaking not continued", "result": 10}, {"measurement": "growth rating", "setting": "250 ppm, streak 1", "result": "1 (0)"}, {"measurement": "growth rating", "setting": "250 ppm, streak 2", "result": "1 (0)"}, {"measurement": "growth rating", "setting": "250 ppm, streak 3", "result": "1 (0)"}, {"measurement": "growth rating", "setting": "250 ppm, streak 4", "result": "1 (0)"}, {"measurement": "growth rating", "setting": "250 ppm, streak 5", "result": "1 (0)"}, {"measurement": "growth rating", "setting": "250 ppm, streak 6", "result": "1 (0)"}, {"measurement": "growth rating", "setting": "250 ppm, streak 7", "result": "1 (0)"}, {"measurement": "growth rating", "setting": "250 ppm, streak 8", "result": "1 (0)"}, {"measurement": "growth rating", "setting": "250 ppm, streak 9", "result": "6 (51-100)"}, {"measurement": "growth rating", "setting": "250 ppm, streak 10", "result": 10}, {"measurement": "growth rating", "setting": "500 ppm, streak 1", "result": "1 (0)"}, {"measurement": "growth rating", "setting": "500 ppm, streak 2", "result": "1 (0)"}, {"measurement": "growth rating", "setting": "500 ppm, streak 3", "result": "1 (0)"}, {"measurement": "growth rating", "setting": "500 ppm, streak 4", "result": "1 (0)"}, {"measurement": "growth rating", "setting": "500 ppm, streak 5", "result": "1 (0)"}, {"measurement": "growth rating", "setting": "500 ppm, streak 6", "result": "1 (0)"}, {"measurement": "growth rating", "setting": "500 ppm, streak 7", "result": "1 (0)"}, {"measurement": "growth rating", "setting": "500 ppm, streak 8", "result": "1 (0)"}, {"measurement": "growth rating", "setting": "500 ppm, streak 9", "result": "1 (0)"}, {"measurement": "growth rating", "setting": "500 ppm, streak 10", "result": "1 (0)"}, {"measurement": "growth rating", "setting": "1000 ppm, streak 1", "result": "1 (0)"}, {"measurement": "growth rating", "setting": "1000 ppm, streak 2", "result": "1 (0)"}, {"measurement": "growth rating", "setting": "1000 ppm, streak 3", "result": "1 (0)"}, {"measurement": "growth rating", "setting": "1000 ppm, streak 4", "result": "1 (0)"}, {"measurement": "growth rating", "setting": "1000 ppm, streak 5", "result": "1 (0)"}, {"measurement": "growth rating", "setting": "1000 ppm, streak 6", "result": "1 (0)"}, {"measurement": "growth rating", "setting": "1000 ppm, streak 7", "result": "1 (0)"}, {"measurement": "growth rating", "setting": "1000 ppm, streak 8", "result": "1 (0)"}, {"measurement": "growth rating", "setting": "1000 ppm, streak 9", "result": "1 (0)"}, {"measurement": "growth rating", "setting": "1000 ppm, streak 10", "result": "1 (0)"}]}
